Measurements: patent US20220273628A1, “EFFECTS OF LYSERGIC ACID DIETHYLAMIDE (LSD) AND OF LSD ANALOGS TO ASSIST PSY[…] G[…] DISORDER OR OTHER ANXIETY NOT RELATED TO LIFE-T[…]” (Universitätsspital Basel, priority 2021, published 2022)
“Also recorded” adds a separate entry of the source.

Key:
5-HT2A receptor = 5-HT2A receptor (Homo sapiens, UniProt P28223); details: cited from earlier work
[1] = 200 μg oral, cited from earlier work
[2] = test system: dopaminergic D1-3 receptors; details: cited from earlier work
healthy participants = details: in vivo; cited from earlier work
healthy subjects = details: cited from earlier work
amygdala reactivity = details: fMRI; cited from earlier work
[3] = test system: patients with anxiety disorder without somatic illness; assay: Same phase II study: adverse events; assay type: in vivo, human
From the text: Subjects were asked to report any adverse events (AEs) during the sessions or between study sessions at the beginning of the next session/visit and at the end of study (EOS) visit. The investigator rated hallucinogen-specific AEs that occurred during the session using a checklist adapted from (Gasser et al., 2014; Griffiths et al., 2006; Schmid et al., 2015). Peak effects were rated at the end of the session based on the patients description and investigators' observation by the investigator as “not reported”, “mild”, “moderate”, or “severe” for: headache, dizziness, dry mouth, nausea, anxiety, paranoid thinking, emotional distress, emotional lability, blurred vision, chills/feeling cold, impaired balance. Heart rate and blood pressure were measured at 2-hourly intervals (Grob et al., 2011).
AEs were described and recorded on the subject's CRF, regardless of the severity or relationship to the IMP. AEs were rated for severity and the potential relationship to the study interventions was evaluated by the investigator according standard criteria. Subjects with AEs were treated appropriately. Abnormal laboratory values not explained by the patients' disease had to be repeated until normal or until the abnormality caould be explained and the subject's safety was not at risk.

[4] = drinking solution (water/alcohol) in dark glass vials; cited from earlier work
[5] = test system: patients with life-threatening illness and related anxiety; details: cited from earlier work
[6] = follow-up visits, not including treatment sessions
[7] = within-subjects, after two LSD sessions

Sequence of 5-HT2A receptor (P28223 whole entry): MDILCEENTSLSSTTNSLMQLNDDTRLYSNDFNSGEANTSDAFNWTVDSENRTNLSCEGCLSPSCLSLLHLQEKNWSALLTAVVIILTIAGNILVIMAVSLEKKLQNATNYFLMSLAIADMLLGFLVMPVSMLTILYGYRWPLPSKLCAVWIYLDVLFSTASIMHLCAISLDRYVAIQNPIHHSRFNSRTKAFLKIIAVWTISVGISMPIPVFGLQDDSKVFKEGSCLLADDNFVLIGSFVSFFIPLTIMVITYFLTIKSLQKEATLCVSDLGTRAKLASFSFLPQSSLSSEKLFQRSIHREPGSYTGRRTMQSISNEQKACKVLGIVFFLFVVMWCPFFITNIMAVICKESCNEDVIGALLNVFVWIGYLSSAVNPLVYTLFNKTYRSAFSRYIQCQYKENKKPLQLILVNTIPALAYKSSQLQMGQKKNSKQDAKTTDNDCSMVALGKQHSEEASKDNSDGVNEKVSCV

In the case of `CCN(CC)C(=O)[C@@H]1C=C2c3cccc4[nH]cc(c34)C[C@H]2N(C)C1` [LSD, lysergic acid diethylamide], the “activity at the 5-HT2A receptor” value (5-HT2A receptor) is given as “partial 5-HT2A receptor agonist; also recorded: agonists”, the “time to maximal concentrations of LSD” value ([1]; 16 healthy subjects) is given as 1.5 h and the half-life ([1]; first-order kinetics up to 12 hours) is given as 3.6 h. The “activity at dopaminergic D1-3 receptors” value [2] was “stimulates”, the “emotional empathy and prosociality” value (healthy participants) was “enhancing” and the “recognition of fearful and sad faces” value (healthy participants) was “decreasing”. For the same molecule, the “duration of alterations in waking consciousness” value (healthy subjects; 200 μg oral, 16 healthy subjects) was 12 h, the “blood pressure, heart rate, body temperature, pupil size, plasma cortisol, prolactin, oxytocin, and epinephrine” value (healthy subjects; 200 μg oral) was “significantly increased” and the “time until adverse effects completely subsided” value (healthy subjects; 200 μg oral) was no more than 72 h. The “difficulty concentrating, number of subjects of 16 participants” value (healthy subjects; 200 μg, acute AE) was 10, the “dizziness, number of subjects of 16 participants” value (healthy subjects; 200 μg, acute AE) was 7 and the “headache, number of subjects of 16 participants” value (healthy subjects; 200 μg, acute AE) was 9. For the same molecule, the “nausea, number of subjects of 16 participants” value (healthy subjects; 200 μg, acute AE) was 4, the “transient moderate anxiety, number of subjects of 16 participants” value (healthy subjects; 200 μg, acute AE) was 4 and the “duration of LSD effects after administration” value (healthy subjects; 200 μg) was “up to 12 hours”. The “time of peak LSD effects” value (healthy subjects; 200 μg) was 2 h, the “amygdala reactivity to fearful stimuli” value (amygdala reactivity) was “decreased” and the “tolerability after dose lowered” value ([3]; 100 μg instead of 200 μg, patient with paranoia SAE) was “tolerated well”. The “fatigue, total of reported AEs” value ([3]; all follow-up visits of the period, not including treatment sessions) was 9, the “anxiety at onset of the LSD effect” value ([3]; during the treatment session) was “two” and the headache ([3]; during the treatment session) was “one”. For the same molecule, the nausea ([3]; during the treatment session) was “two”, the strong anxiety/paranoia ([3]; during the treatment session) was “one” and the “SAE: paranoia during the LSD session (expected reaction to LSD)” value ([3]; first LSD session, 200 μg) was “one”. For the same molecule, the “common cold, total of reported AEs” value [3, 6] was 7, the “depression, total of reported AEs” value [3, 6] was 3 and the “difficulty concentrating, total of reported AEs” value [3, 6] was 5. The “headache, total of reported AEs” value [3, 6] was 6, the “nausea, total of reported AEs” value [3, 6] was 3 and the “vertigo, total of reported AEs” value [3, 6] was 5. For the same molecule, the “content-uniformity and stability of the formulation” value [4] was “stability of the formulation throughout the entire study period was documented”, the “STAI anxiety compared with baseline” value ([5]; 2 months after the two LSD sessions, 200 μg per os) was “significant decrease” and the “mild affect lability, share of LSD sessions” value ([5]; in vivo) was 14%. The “mild gait disturbance, share of LSD sessions” value ([5]; in vivo) was 32%, the “mild-to-moderate emotional distress, share of LSD sessions” value ([5]; in vivo) was 36% and the “moderate anxiety, share of LSD sessions” value ([5]; in vivo) was 23%. The “moderately feeling cold, share of LSD sessions” value ([5]; in vivo) was 45%, the “number of migraine attacks” value ([5]; two migraine patients) was “markedly reduced” and the “STAI state anxiety score after LSD (mean±SD)” value [5, 7] was 41.5±9.7. For the same molecule, the “STAI trait anxiety score after LSD (mean±SD)” value [5, 7] was 45.3±10.3, the “STAI state anxiety score before LSD (mean±SD)” value ([5]; within-subjects, baseline) was 53.1±13.5 and the “STAI trait anxiety score before LSD (mean±SD)” value ([5]; within-subjects, baseline) was 53.3±11.3. For the same molecule, the “decrease in STAI trait anxiety score (mean±SD)” value ([5]; within-subjects) was 8.0±7.7 points and the “reduction in STAI state anxiety score (mean±SD)” value ([5]; within-subjects) was 11.6±9.5 points.
